Source: patent publication US20170042991A1, “COMPOSITIONS COMPRISING GLUTEN PEPTIDES AND USES THEREOF” (ImmusanT, Inc., priority 2014, published 2017)
Non-standard residues stand in square brackets, D forms with d. pGlu = O=C1CC[C@@H](C(=O)O)N1

Legend:
Format in all cases: cell-based, human
PBMC = assay: IFN-gamma ELISpot of PBMC, Day-6 after gluten challenge (Example 1); conditions: DQ2.5+ CD
whole blood = assay: 96-well plate whole blood multiplex cytokine release, IFNγ (MAGPIX bead assay, Example 2); conditions: for Percent of maximal response, IFNg: after oral gluten challenge; for IFNγ WB MAGPIX % max Mean: individual peptides 5 μM, Day-6, n = 8, Peptide 2 = CSBio batch
gluten-reactive T cells = assay: Cytokine release assays taken together (IFNγ ELISpot, whole blood IFNγ and IP-10 release); conditions: for relative activity among individual peptides tested: blood collected after oral gluten challenge, HLA-DQ2.5+ subjects
Procedure: Gluten peptide solutions for addition to whole blood were arranged according to standardized templates in sterile 96-well U-bottom plates (30 μL/well). Plates were sealed with adhesive ELISA plate cover slips before the plastic lid was replaced and being frozen at −80° C. Whole blood assay (WBA) “medium” (1% DMSO in 90% PBS and 9% normal saline), mitogen (PHA-L, Sigma-Aldrich #L2769; St Louis Mo.) 100 μg/ml in WBA medium, and CEF diluted to 10 μg/ml in PBS with a final concentration of 1% DMSO were frozen separately in sterile cryovials. 96-well plates and cryovials with frozen incubation solutions were shipped on dry ice to the clinical site where blood was collected and incubations performed. Solutions were thawed at room temperature for 10 min just before being added to whole blood. 96-well plates were thawed while being centrifuged at 300 g to avoid surface condensation. A multi-channel pipette was used to efficiently transfer 25 μL of peptide solutions from the original 96-well plate to corresponding wells in a fresh sterile 96-well U-bottom plate. Once incubation solutions had been added, 225 μL of whole blood was added to each well and the plate transferred to incubate for 24 h at 37° C. 5% CO2. […] Individual peptides were incubated at a final assay concentration of 5 μM. Final concentrations of individual peptides assessed in P3 was 0.05-50 μg/mL, and in P14 and P13 pools 0.025-25 μM. The P71 pool was tested at between 0.005-10 μg/mL, the highest tested concentration being the maximal possible not exceeding 0.1% DMSO. Peptide pools, mitogen, and medium only were assessed in triplicate wells, and on Day-6 individual peptides were assessed in duplicate wells. Incubations were terminated after 24 h, and 96-well plates centrifuged at 300 g for 10 min. A total of approximately 90 to 120 μL of plasma was removed from each well taking care to avoid red cell contamination, and transferred into corresponding wells of two further 96-well plates (one with 30 μL/well and the residual in the second plate). Plasmas were frozen at −80° C. and later shipped on dry ice to the central lab where IP-10 and IFNγ multiplex bead assays were performed according to manufacturer's instructions using 25 μL plasma per well (Milliplex® MAP Human Cytokine/Chemokine Magnetic Bead Panel #HCYTOMAG-60k-02; EMD Millipore Corp., Billerica, Mass. 01821) and analysed with the Luminex® MAGPIX® System xPONENT® software (Luminex Corporation, Austin Tex. 78727). Plasma cytokine levels for each assay condition were expressed as the mean analyte concentration of each of the three replicate incubations. Laboratory staff were unaware of the arrangement of peptide solutions incubated with during assay setup and plate counting. […]

Substance | Peptide-specific IFN-gamma ELISpot response (PBMC; Subject 1, 10 ug/ml) | Peptide-specific IFN-gamma ELISpot response (PBMC; Subject 2, 10 ug/ml) | Peptide-specific IFN-gamma ELISpot response (PBMC; Subject 3, 10 ug/ml) | Peptide-specific IFN-gamma ELISpot response (PBMC; Subject 4, 10 ug/ml) | Peptide-specific IFN-gamma ELISpot response (PBMC; Subject 5, 10 ug/ml) | Peptide-specific IFN-gamma ELISpot response (PBMC; Subject 6, 10 ug/ml) | Peptide-specific IFN-gamma ELISpot response (PBMC; Subject 7, 10 ug/ml) | Peptide-specific IFN-gamma ELISpot response (PBMC; Subject 8, 10 ug/ml) | Peptide-specific IFN-gamma ELISpot response (PBMC; Subject 9, 10 ug/ml) | Peptide-specific IFN-gamma ELISpot response (PBMC; Subject 10, 10 ug/ml) | Percent of maximal response, IFNg (whole blood; Subject 2, Max. 116 pg/mL) | Percent of maximal response, IFNg (whole blood; Subject 3, Max. 799 pg/mL) | Percent of maximal response, IFNg (whole blood; Subject 4, Max. 136 pg/mL) | Percent of maximal response, IFNg (whole blood; Subject 6, Max. 72 pg/mL) | Percent of maximal response, IFNg (whole blood; Subject 7, Max. 17 pg/mL) | Percent of maximal response, IFNg (whole blood; Subject 8, Max. 47 pg/mL) | Percent of maximal response, IFNg (whole blood; Subject 9, Max. 67 pg/mL) | Percent of maximal response, IFNg (whole blood; Subject 10, Max. 229 pg/mL) | IFNγ WB MAGPIX % max Mean (whole blood) | relative activity among individual peptides tested (gluten-reactive T cells) | further results
(pE)LQPFPQPELPYPQPQ-amide ([pGlu]LQPFPQPELPYPQPQ-NH2; SMILES CC(C)C[C@H](NC(=O)[C@@H]1CCC(=O)N1)C(=O)N[C@@H](CCC(N)=O)C(=O)N1CCC[C@H]1C(=O)N[C@@H](Cc1ccccc1)C(=O)N1CCC[C@H]1C(=O)N[C@@H](CCC(N)=O)C(=O)N1CCC[C@H]1C(=O)N[C@@H](CCC(=O)O)C(=O)N[C@@H](CC(C)C)C(=O)N1CCC[C@H]1C(=O)N[C@@H](Cc1ccc(O)cc1)C(=O)N1CCC[C@H]1C(=O)N[C@@H](CCC(N)=O)C(=O)N1CCC[C@H]1C(=O)N[C@@H](CCC(N)=O)C(N)=O) [Peptide 1] | 2 spot forming units per 0.8 million PBMC | 4 spot forming units per 0.8 million PBMC | 2 spot forming units per 0.8 million PBMC | 8 spot forming units per 0.8 million PBMC | 0 spot forming units per 0.8 million PBMC | 4 spot forming units per 0.8 million PBMC | 1 spot forming units per 0.8 million PBMC | 0 spot forming units per 0.8 million PBMC | 0 spot forming units per 0.8 million PBMC | 1 spot forming units per 0.8 million PBMC | 100 % of max | 14 % of max | 26 % of max | 25 % of max | 43 % of max | 6 % of max | 43 % of max | 7 % of max | 33 % max | most active of this group of related peptides | activity as a fraction of that of Peptide 14 (gluten-reactive T cells; three cytokine release assays): no more than two-thirds
(pE)PEQPIPEQPQPYPQQ-amide ([pGlu]PEQPIPEQPQPYPQQ-NH2; SMILES CC[C@H](C)[C@H](NC(=O)[C@@H]1CCCN1C(=O)[C@H](CCC(N)=O)NC(=O)[C@H](CCC(=O)O)NC(=O)[C@@H]1CCCN1C(=O)[C@@H]1CCC(=O)N1)C(=O)N1CCC[C@H]1C(=O)N[C@@H](CCC(=O)O)C(=O)N[C@@H](CCC(N)=O)C(=O)N1CCC[C@H]1C(=O)N[C@@H](CCC(N)=O)C(=O)N1CCC[C@H]1C(=O)N[C@@H](Cc1ccc(O)cc1)C(=O)N1CCC[C@H]1C(=O)N[C@@H](CCC(N)=O)C(=O)N[C@@H](CCC(N)=O)C(N)=O) [Peptide 3] | 0 spot forming units per 0.8 million PBMC | 1 spot forming units per 0.8 million PBMC | 9 spot forming units per 0.8 million PBMC | 30 spot forming units per 0.8 million PBMC | 0 spot forming units per 0.8 million PBMC | 11 spot forming units per 0.8 million PBMC | 1 spot forming units per 0.8 million PBMC | 9 spot forming units per 0.8 million PBMC | 3 spot forming units per 0.8 million PBMC | 1 spot forming units per 0.8 million PBMC | 35 % of max | 92 % of max | 66 % of max | 63 % of max | 6 % of max | 89 % of max | 60 % of max | 81 % of max | 62 % max | consistently the second most active peptide after Peptide 14 | whole blood IFNγ release compared with that stimulated by Peptide 14 (whole blood; whole blood incubations): one-third less
